Measurements: PubChem BioAssay (NCI)
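Results reflect a 48-hour exposure of cells in 96-well plates to compound at five concentrations. TGI: total growth inhibition.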

Columns and labels:
Test in all cases: NCI tumour cell line growth inhibition, 48 h
[1] = system: SNB-19 CNS
[2] = system: IGROV1 ovarian
[3] = system: RPMI-8226 leukemia
[4] = system: NCI/ADR-RES ovarian
[5] = system: SW-620 colon
[6] = system: MCF7 breast
[7] = system: CAKI-1 renal
[8] = system: SK-OV-3 ovarian
[9] = system: LOX IMVI melanoma
[10] = system: OVCAR-5 ovarian
[11] = system: A498 renal
[12] = system: COLO 205 colon
[13] = system: 786-0 renal
[14] = system: ACHN renal
[15] = system: KM12 colon
[16] = system: DU-145 prostate
[17] = system: PC-3 prostate
[18] = system: HOP-92 NSCLC
[19] = system: NCI-H23 lung
[20] = system: A549 NSCLC
[21] = system: SN12C renal
[22] = system: T-47D breast
[23] = system: OVCAR-8 ovarian
[24] = system: NCI-H460 lung
[25] = system: MDA-MB-435
[26] = system: MDA-MB-231 breast
[27] = system: SF-268 CNS
[28] = system: HOP-62 NSCLC
[29] = system: EKVX NSCLC
[30] = system: SF-539 CNS
[31] = system: SK-MEL-28 melanoma
[32] = system: HT29 colon
[33] = system: HCT-116 colon
[34] = system: SF-295 CNS
[35] = system: M14 melanoma
[36] = system: MALME-3M melanoma
[37] = system: HCT-15 colon
[38] = system: HS 578T breast
[39] = system: MDA-N
[40] = system: U251 CNS
[41] = system: TK-10 renal
[42] = system: HL-60(TB) leukemia
[43] = system: SK-MEL-5 melanoma
[44] = system: UO-31 renal
[45] = system: UACC-257 melanoma
[46] = system: OVCAR-3 ovarian
[47] = system: BT-549 breast
[48] = system: NCI-H226 lung

Compound: O=[N+]([O-])c1cccc([N+](=O)[O-])c1S(=O)(=O)c1ccccc1
- TGI [1]: 35.3 µM
- TGI [2]: 4.2 µM
- TGI [3]: 3.68 µM
- TGI [4]: 31.4 µM
- TGI [5]: 5.9 µM
- TGI [6]: 43.1 µM
- TGI [7]: 3.76 µM
- TGI [8]: 31.2 µM
- TGI [9]: 3.7 µM
- TGI [10]: 9.18 µM
- TGI [11]: 36.1 µM
- TGI [12]: 19.4 µM
- TGI [13]: 5.21 µM
- TGI [14]: 3.92 µM
- TGI [15]: 32 µM
- TGI [16]: 20 µM
- TGI [17]: 32.3 µM
- TGI [18]: 7.18 µM
- TGI [19]: 50.7 µM
- TGI [20]: 41.8 µM
- TGI [21]: 12.3 µM
- TGI [22]: 4.8 µM
- TGI [23]: 6.21 µM
- TGI [24]: 46.7 µM
- TGI [25]: 14.6 µM
- TGI [26]: 37.3 µM
- TGI [27]: 29 µM
- TGI [28]: 35.1 µM
- TGI [29]: 42.8 µM
- TGI [30]: 30.2 µM
- TGI [31]: 15.2 µM
- TGI [32]: 36.2 µM
- TGI [33]: 4.04 µM
- TGI [34]: 31.8 µM
- TGI [35]: 6.59 µM
- TGI [36]: 6.19 µM
- TGI [37]: 4.1 µM
- TGI [38]: 43.9 µM
- TGI [39]: 19.8 µM
- TGI [40]: 23 µM
- TGI [41]: 30.2 µM
- TGI [42]: 7.48 µM
- TGI [43]: 28.3 µM
- TGI [44]: 3.5 µM
- TGI [45]: 28.8 µM
- TGI [46]: 5.5 µM
- TGI [47]: 13.6 µM
- TGI [48]: 36.8 µM
